For twelve molecules, EC50 results are on record in patent US10583140B2, “Ingenol analogs, pharmaceutical compositions and methods of use thereof” (GlaxoSmithKline Intellectual Property Development Limited, priority 2016, dated 2020).

The term EC50 denotes the concentration that produces a half-maximal response.

Structures are written as SMILES.

For the test, the system named is HIV-infected Jurkat cell clones (C16, I15 and N6). The test can be described thus: Jurkat HIV Latency assay (HIV activation, luciferase). The class given is cell-based. As to conditions: Homo sapiens, HIV activation by HIV expressed luciferase (Steady-Glo), cells incubated with compound 24 hours at 37° C. On the procedure: For the Jurkat HIV Latency assay, compounds are dissolved and titrated in DMSO and diluted 100-fold in assay medium (RPMI-1640 containing 10% fetal bovine serum) containing an equal mixture of three HIV-infected Jurkat cell clones (C16, I15 and N6) at a total concentration of 1-2×10e^5 cells/mL. To test stability, compounds are pre-incubated in an assay medium for 48 hours at 37° C. prior to adding cells (48 hr EC50). Compounds that induce HIV expression result in a dose-dependent production of the HIV expressed luciferase enzyme. After the incubation of cells with compound for 24 hours at 37° C., HIV activation and cytotoxicity are determined by measuring luminescence after the addition of Promega Steady-Glo® Luciferase Assay reagent or CellTiter-Glo® Luminescent Cell Viability Assay reagent, respectively.
In the case of `CCCCNC(=O)OCC1=C[C@@H]2C(=O)[C@]3(C=C(C)[C@H](O)[C@@]3(O)[C@@H]1O)[C@H](C)C[C@@H]1[C@H]2C1(C)C` [Example 7, ((1aR,2S,5R,5aR,6S,8aS,9R,10aR)-5,5a,6-trihydroxy-1,1,7,9-tetramethyl-11-oxo-1a,2,5,5a,6,9,10,10a-octahydro-1H-2,8a-methanocyclopenta[a]cyclopropa[e][10]annulen-4-yl)methyl butylcarbamate], the EC50 stood at 1050 nM. For `CC1=C[C@]23C(=O)[C@@H](C=C(COC(=O)N(C)C4CCCCC4)[C@@H](O)[C@]2(O)[C@H]1O)[C@H]1[C@@H](C[C@H]3C)C1(C)C` [Example 9, ((1aR,2S,5R,5aR,6S,8aS,9R,10aR)-5,5a,6-trihydroxy-1,1,7,9-tetramethyl-11-oxo-1a,2,5,5a,6,9,10,10a-octahydro-1H-2,8a-methanocyclopenta[a]cyclopropa[e][10]annulen-4-yl)methyl cyclohexyl(methyl)carbamate], the 50% effective concentration (EC50) was 50000 nM. As for `CC1=C[C@]23C(=O)[C@@H](C=C(COC(=O)NCc4ccccc4)[C@@H](O)[C@]2(O)[C@H]1O)[C@H]1[C@@H](C[C@H]3C)C1(C)C` [Example 8, ((1aR,2S,5R,5aR,6S,8aS,9R,10aR)-5,5a,6-trihydroxy-1,1,7,9-tetramethyl-11-oxo-1a,2,5,5a,6,9,10,10a-octahydro-1H-2,8a-methanocyclopenta[a]cyclopropa[e][10]annulen-4-yl)methyl benzylcarbamate], the EC50 is 4330 nM. Turning to `CC1=C[C@]23C(=O)[C@@H](C=C(CN4C(=O)c5ccccc5C4=O)[C@@H](O)[C@]2(O)[C@H]1OC(=O)N(C)c1ccc(Cl)cc1)[C@H]1[C@@H](C[C@H]3C)C1(C)C` [Example 3, (1aR,2S,5R,5aS,6S,8aS,9R,10aR)-4-((1,3-dioxoisoindolin-2-yl)methyl)-5,5a-dihydroxy-1,1,7,9-tetramethyl-11-oxo-1a,2,5,5a,6,9,10,10a-octahydro-1H-2,8a-methanocyclopenta[a]cyclopropa[e][10]annulen-6-yl (4-chlorophenyl) (methyl)carbamate], the EC50 came to 1110 nM. Turning to `CC1=C[C@]23C(=O)[C@@H](C=C(COC(=O)N4CCc5ccccc54)[C@@H](O)[C@]2(O)[C@H]1OC(=O)N1CCc2ccccc21)[C@H]1[C@@H](C[C@H]3C)C1(C)C` [Example 11, (1aR,2S,5R,5aS,6S,8aS,9R,10aR)-5,5a-dihydroxy-4-(((indoline-1-carbonyl)oxy)methyl)-1,1,7,9-tetramethyl-11-oxo-1a,2,5,5a,6,9,10,10a-octahydro-1H-2,8a-methanocyclopenta[a]cyclopropa[e][10]annulen-6-yl indoline-1-carboxylate], the EC50 came out at 3500 nM.

Take `CC1=C[C@]23C(=O)[C@@H](C=C(COC(=O)c4ccccc4)[C@@H](O)[C@]2(O)[C@H]1OC(=O)N(C)c1ccc(Cl)cc1)[C@H]1[C@@H](C[C@H]3C)C1(C)C` [Example 2, ((1aR,2S,5R,5aS,6S,8aS,9R,10aR)-6-(((4-chlorophenyl) (methyl)carbamoyl)oxy)-5,5a-dihydroxy-1,1,7,9-tetramethyl-11-oxo-1a,2,5,5a,6,9,10,10a-octahydro-1H-2,8a-methanocyclopenta [a]cyclopropa[e][10]annulen-4-yl)methyl benzoate]: the EC50 was 22 nM.

Take `CC(=O)OCC1=C[C@@H]2C(=O)[C@]3(C=C(C)[C@H](OC(=O)N(C)c4ccc(Cl)cc4)[C@@]3(O)[C@@H]1O)[C@H](C)C[C@@H]1[C@H]2C1(C)C` [Example 1, ((1aR,2S,5R,5aS,6S,8aS,9R,10aR)-6-(((4-chlorophenyl) (methyl)carbamoyl)oxy)-5,5a-dihydroxy-1,1,7,9-tetramethyl-11-oxo-1a,2,5,5a,6,9,10,10a-octahydro-1H-2,8a-methanocyclopenta[a]cyclopropa[e][10]annulen-4-yl)methyl acetate]: the EC50 stood at 7 nM. Then `CC1=C[C@]23C(=O)[C@@H](C=C(CO)[C@@H](O)[C@]2(O)C1=O)[C@H]1[C@@H](C[C@H]3C)C1(C)C` [Example 4, (1aR,2S,5R,5aS,8aS,9R,10aR)-5,5a-dihydroxy-4-(hydroxymethyl)-1,1,7,9-tetramethyl-1a,2,5,5a,10,10a-hexahydro-1H-2,8a-methanocyclopenta[a]cyclopropa[e][10]annulene-6,11 (9H)-dione], with 4940 nM; and `CC1=C[C@]23C(=O)[C@@H](C=C(COC(=O)Nc4ccccc4)[C@@H](O)[C@]2(O)[C@H]1O)[C@H]1[C@@H](C[C@H]3C)C1(C)C` [Example 6, ((1aR,2S,5R,5aR,6S,8aS,9R,10aR)-5,5a,6-trihydroxy-1,1,7,9-tetramethyl-11-oxo-1a,2,5,5a,6,9,10,10a-octahydro-1H-2,8a-methanocyclopenta[a]cyclopropa[e][10]annulen-4-yl)methyl phenylcarbamate], with 3680 nM. Then `CC1=C[C@]23C(=O)[C@@H](C=C(COC(=O)N(C)c4ccc(Cl)cc4)[C@@H](O)[C@]2(O)[C@H]1O)[C@H]1[C@@H](C[C@H]3C)C1(C)C` [Example 5, ((1aR,2S,5R,5aR,6S,8aS,9R,10aR)-5,5a,6-trihydroxy-1,1,7,9-tetramethyl-11-oxo-1a,2,5,5a,6,9,10,10a-octahydro-1H-2,8a-methanocyclopenta[a]cyclopropa[e][10]annulen-4-yl)methyl (4-chlorophenyl)(methyl)carbamate], with 616 nM; and `CC1=C[C@]23C(=O)[C@@H](C=C(COc4ncc(C(F)(F)F)cn4)[C@@H](O)[C@]2(O)[C@H]1O)[C@H]1[C@@H](C[C@H]3C)C1(C)C` [Example 12, (1aR,2S,5R,5aR,6S,8aS,9R,10aR)-5,5a,6-trihydroxy-1,1,7,9-tetramethyl-4-(((5-(trifluoromethyl)pyrimidin-2-yl)oxy)methyl)-1a,2,5,5a,6,9,10,10a-octahydro-1H-2,8a-methanocyclopenta[a]cyclopropa[e][10]annulen-11-one], with 5170 nM; and `CC1=C[C@]23C(=O)[C@@H](C=C(COC(=O)N4CCc5ccccc54)[C@@H](O)[C@]2(O)[C@H]1O)[C@H]1[C@@H](C[C@H]3C)C1(C)C` [Example 10, ((1aR,2S,5R,5aR,6S,8aS,9R,10aR)-5,5a,6-trihydroxy-1,1,7,9-tetramethyl-11-oxo-1a,2,5,5a,6,9,10,10a-octahydro-1H-2,8a-methanocyclopenta[a]cyclopropa[e][10]annulen-4-yl)methyl indoline-1-carboxylate], with 278 nM.
